In this test the test system is Plasmodium berghei (KBG-173 strain). Kind of test: Plasmodium berghei assay in vivo (modified Thompson Test), survival of infected mice. Set-up: species or system Charles River CD-1 mice. The conditions noted are these: oral bid on days 3, 4 and 5; for Average Days Survival: 31 day experiment. The method, then:
In vivo antimalarial activity was tested in male or female Charles River CD-1 mice that were 4-5 weeks old and weighed 20-25 g They were housed in groups of 3 or 4 in standard plastic cages with wire tops, Bed-o-cob® bedding, 12 hr/day of light, and maintained at 75° F. They were fed a standard Ralston Purina mouse chow and the cages and bottles were changed twice a week. Test compounds were ground in a mortar and pestle and diluted with enough vehicle to give a volume of 10 mL/kg of mouse weight. The oral doses were prepared in 0.5% hydroxyethylcellulose (Union Carbide Corp. WP 4400)/0.1% Tween-80 (Fisher Scientific T164-500). The amount of drug was calculated on the free base weight. The mice were infected intraperitoneally on day 0 with 5×10^4 erythrocytes parasitized with Plasmodium berghei (KBG-173 strain) from a donor mouse having a parasitemia between 5-10%. On days 3, 4 and 5 the test compounds were administered bid, spaced 6 hr apart, by oral gavage to the mice. Activity was measured by survival, with full activity defined as all animals living at day 31. Partial activity is defined as days of increased survival versus the infected non-treated controls. This in vivo model is a modification of the Thompson Test. For further description see Ager, A. L, Jr. Rodent Malaria Models. In Handbook of Experimental Pharmacology: Antimalarial Drugs. 1. 68/1; Peters, W., Richards, W. H. G., Eds.: Springer-Verlag: Berlin, 1984, pp. 231-33.

The mark [1] stands for this setting: Plasmodium berghei, 744 h, 4 mg/kg/day, read-out: Number of mice alive at day 31 (converted).
The mark [2] stands for this setting: Plasmodium berghei, 744 h, 8 mg/kg/day, read-out: Number of mice alive at day 31 (converted).
[3] abbreviates: Plasmodium berghei, 744 h, 16 mg/kg/day, read-out: Number of mice alive at day 31 (converted).
The mark [4] stands for this setting: Plasmodium berghei, 744 h, 32 mg/kg/day, read-out: Number of mice alive at day 31 (converted).
Where [5] appears, read: Plasmodium berghei, 744 h, 64 mg/kg/day, read-out: Number of mice alive at day 31 (converted).
Where [6] appears, read: Plasmodium berghei, 744 h, 2 mg/kg/day, read-out: Number of mice alive at day 31 (converted).

Each structure is given as a SMILES string. Marks after values point to notes of the source that are not given here.

`CC(C)(C)NCc1cc(C(C)(C)C)cc(-c2ccc(OC(F)(F)F)cc2)c1O` [Example 5, 5-(tert-Butyl)-3-((tert-butylamino)methyl)-4′-(trifluoromethoxy)-[1,1′-biphenyl]-2-ol]: the “Average Days Survival” value by setting is: (4 mg/kg/day) above 19.3 days; (8 mg/kg/day) >31* Days; (16 mg/kg/day) >31* Days; (32 mg/kg/day) >31* Days; (64 mg/kg/day) >31* Days; (128 mg/kg/day) >31* Days. The “Average Days Survival” value (256 mg/kg/day) was >31* Days. Under setting [1], the responders at 4 mg/kg was 42.9%. Also, the responders at 8 mg/kg under setting [2] was 100%. The responders at 16 mg/kg under setting [3] was 100%. Further, the responders at 32 mg/kg under setting [4] is 100%. Further, under setting [5], the responders at 64 mg/kg was 100%. Moreover, under “Plasmodium berghei, 744 h, 128 mg/kg/day, read-out: Number of mice alive at day 31 (converted)”, the responders at 128 mg/kg was 100%. Besides, the responders at 256 mg/kg (Plasmodium berghei, 744 h, 256 mg/kg/day, read-out: Number of mice alive at day 31 (converted)) is 100%.
For `CC(C)(C)NCc1cc(C(C)(C)C)cc(-c2cc(C(F)(F)F)cc(C(F)(F)F)c2)c1O.Cl` [Example 16, 5-(tert-Butyl)-3-((tert-butylamino)methyl)-3′,5′-bis(trifluoromethyl)-[1,1′-biphenyl]-2-ol hydrochloride], the “Average Days Survival” value reads like this: (2 mg/kg/day) above 20.5 days; (4 mg/kg/day) above 17 days; (8 mg/kg/day) >31* Days; (16 mg/kg/day) >31* Days; (32 mg/kg/day) >31* Days. Further, the responders at 2 mg/kg under setting [6] was 42.9%. In addition, the responders at 4 mg/kg under setting [1] was 85.7%. Also, the responders at 8 mg/kg under setting [2] was 100%. The responders at 16 mg/kg under setting [3] is 100%. Besides, under setting [4], the responders at 32 mg/kg is 100%.
Consider `CC1(NCc2cc(C(C)(C)C)cc(-c3ccc(OC(F)(F)F)cc3)c2O)CCC1.Cl` [Example 18, 5-(tert-Butyl)-3-(((1-methylcyclobutyl)amino)methyl)-4′-(trifluoromethoxy)-[1,1′-biphenyl]-2-ol hydrochloride], for which the “Average Days Survival” value was 15.7 days (4 mg/kg/day), >31* Days (8 mg/kg/day), >31* Days (16 mg/kg/day) and >31* Days (32 mg/kg/day). Further, under setting [1], the responders at 4 mg/kg was 0%. Also, the responders at 8 mg/kg under setting [2] was 100%. Moreover, under setting [3], the responders at 16 mg/kg is 100%. Further, the responders at 32 mg/kg under setting [4] is 100%.
Turning to `CC(C)(C)NCc1cc(C(C)(C)C)cc(-c2ccc(Cl)c(Cl)c2)c1O.Cl` [Example 19, 5-(tert-Butyl)-3-((tert-butylamino)methyl)-3′,4′-dichloro-[1,1′-biphenyl]-2-ol hydrochloride], the “Average Days Survival” value (1 mg/kg/day) is above 19.6 days; the “Average Days Survival” value (2 mg/kg/day) is above 7 days; the “Average Days Survival” value (4 mg/kg/day) is recorded as >31* Days; the “Average Days Survival” value (8 mg/kg/day) is reported as >31* Days; the “Average Days Survival” value (16 mg/kg/day) is >31* Days. In addition, where the note is “Plasmodium berghei, 744 h, 1 mg/kg/day, read-out: Number of mice alive at day 31 (converted)”, the responders at 1 mg/kg is 28.6%. Further, the responders at 2 mg/kg under setting [6] is 85.7%. In addition, under setting [1], the responders at 4 mg/kg was 100%. For the same compound, under setting [2], the responders at 8 mg/kg was 100%. Moreover, the responders at 16 mg/kg under setting [3] is 100%.
For `CC(C)(C)NCc1cc(C(C)(C)C)cc(-c2ccc(C(F)(F)F)cc2)c1O.Cl` [Example 22, 5-(tert-Butyl)-3-((tert-butylamino)methyl)-4′-(trifluoromethyl)-[1,1′-biphenyl]-2-ol hydrochloride], the “Average Days Survival” value runs as follows: (2 mg/kg/day) above 16.8 days; (4 mg/kg/day) above 24 days; (8 mg/kg/day) >31* Days; (16 mg/kg/day) >31* Days; (32 mg/kg/day) >31* Days; (64 mg/kg/day) >31* Days. Further, under setting [6], the responders at 2 mg/kg was 28.6%. In addition, the responders at 4 mg/kg under setting [1] is 85.7%. Further, the responders at 8 mg/kg under setting [2] was 100%. Also, the responders at 16 mg/kg under setting [3] was 100%. Moreover, the responders at 32 mg/kg under setting [4] is 100%. The responders at 64 mg/kg under setting [5] is 100%.
As for `CC(C)(C)NCc1cc(C(C)(C)C)cc(-c2ccc(F)c(Cl)c2)c1O.Cl` [Example 24, 5-(tert-Butyl)-3-((tert-butylamino)methyl)-3′-chloro-4′-fluoro-[1,1′-biphenyl]-2-ol hydrochloride], the “Average Days Survival” value is, setting by setting: (2 mg/kg/day) above 17 days; (4 mg/kg/day) above 14.5 days; (8 mg/kg/day) above 16 days; (16 mg/kg/day) >31* Days; (32 mg/kg/day) >31* Days. Further, the responders at 2 mg/kg under setting [6] is 42.9%. Moreover, under setting [1], the responders at 4 mg/kg is 71.4%. For the same compound, under setting [2], the responders at 8 mg/kg is 85.7%. Also, the responders at 16 mg/kg under setting [3] was 100%. The responders at 32 mg/kg under setting [4] is 100%.
With `CC(C)(C)NCc1cc(-c2ccc(Cl)cc2)cc(-c2ccc(Cl)c(Cl)c2)c1O.Cl` [Example 39, 5′-((tert-Butylamino)methyl)-3″,4,4″-trichloro-[1,1′:3′,1″-terphenyl]-4′-ol hydrochloride], the “Average Days Survival” value is, setting by setting: (2 mg/kg/day) above 23 days; (4 mg/kg/day) >31* Days; (8 mg/kg/day) >31* Days; (16 mg/kg/day) >31* Days. For the same compound, under setting [6], the responders at 2 mg/kg is 14.3%. Further, the responders at 4 mg/kg under setting [1] is 100%. The responders at 8 mg/kg under setting [2] is 100%. Also, the responders at 16 mg/kg under setting [3] was 100%.

(Values after patent US8962657B2, “Aryl derivatives and uses thereof” (Jacobus Pharmaceutical Company, Inc., priority 2012, dated 2015).)
